# Patent publication US20260008775A1, “AZOLE MODULATORS OF CHOLESTEROL BIOSYNTHESIS AND THEIR USE FOR PROMOTING REMYELINATION” (GENENTECH, INC., priority 2022, published 2026)
# pEC50, pKi: −log10 of the molar value.
# Tests used:
# [1] = system: zymostenol accumulation (EBP) in EpiSC-derived OPCs; assay: GC/MS-based sterol profiling, zymostenol accumulation in EpiSC-derived OPCs; assay type: cell-based, mouse; conditions: Mus musculus, 24 h, EpiSC-derived OPCs, 24 hr, 8 doses from 0.15 nM to 333 nM; read-out: Mouse Zymostenol GCMS EC50
# Protocol: To assess effects of treatments on OPCs, all treatments were assayed in two or more independent platings of epiblast stem cell-derived OPCs (EpiSC). EpiSC-derived OPCs were obtained using in vitro differentiation protocols and culture conditions described previously (Najm et al, 2011, Nature Methods). OPCs were expanded and frozen down in aliquots. OPCs were thawed into growth conditions for at least one passage before use in further assays.
# Sterols were monitored using a modified Folch wash protocol (Hubler et al, 2018, Nature). EpiSC-derived OPCs were plated at 100,000 cells per well in PO- and laminin-coated 96-well plates in N2B27 media without growth factors. After 24 hours, cells were rinsed with saline and plates were frozen. Cholesterol-d7 standard was then added to each well before drying under nitrogen stream and derivatization with 55 μl of bis(trimethylsilyl) trifluoroacetamide. After derivatization, 2 μl were analyzed by gas chromatography/mass spectrometry using an Agilent 5973 Network Mass Selective Detector equipped with a 6890 gas chromatograph system and a HP-5MS capillary column (30 m×0.25 mm×[…]). Samples were analyzed in full scan mode using electron impact ionization; ion fragment peaks were integrated to calculate sterol abundance, and quantitation was relative to cholesterol-d7. The following ion fragments were used to quantitate each metabolite: cholesterol-d7 (465), FF-Mas (482), cholesterol (368), zymostenol (458), zymosterol (456), Desmosterol (456, 343), 7-dehydrocholesterol (456, 325), lanosterol (393), lathosterol (458), 14-dehydrozymostenol (456, 351). […] All standards were obtained from Avanti Polar Lipids unless otherwise indicated. Calibration curves were generated by injecting varying concentrations of sterol standards and maintaining a fixed amount of cholesterol-D7. For normalized zymostenol accumulation results, the total amount of zymostenol measured after drug treatment was divided by the total amount of zymostenol accumulated after 24 hr treatment with 100 nM positive control reference.
# [2] = molecular target: human emopamil binding protein and human 7-dehydrocholesterol reductase (hEBP-DHCR7) (Homo sapiens (Human), UniProt Q15125); assay: hEBP-DHCR7 radioligand binding assay (filter binding, membranes of co-expressing HEK293 cells); conditions: competition with [3H] radioligand, 8 doses 0.06 to 5000 nM, Ki calculated from IC50
# Protocol: Membrane Preparation: human emopamil binding protein and human 7-dehydrocholesterol reductase co-expressing cells were generated by transient transfecting host human embryonic kidney (HEK) 293 cells with 2 DNA constructs containing each protein's coding sequence. Cells were suspension cultured at 37° C. with 5% CO2 in […] 293 Expression Medium (Thermofisher). Whole cell membrane was prepared by harvesting the cell pellet, adding cold membrane buffer (50 mM Tris, pH7.5, 1× Roche COMPLETE EDTA-free protease inhibitor cocktail) 10 times volume of the cell pellets weight, lysing cell pellet on ice by using Dounce homogenizer, spinning at 200 g 4° C. for 15 min, collecting supernatant and spinning again at 25000 g 4° C. for 50 min, transferring pellet to Dounce homogenizer, re-suspending pellet by homogenizing in membrane buffer on ice to reach ˜25 mg/mL, then keeping whole cell membrane aliquots at −80° C.
# Compounds were prepared in a 96-well U bottom plate (Corning Cat #7007) using an Echo550 machine and 10 mM compound DMSO stock solution, followed by an 8-dose 5-fold serial dilutions protocol with final testing compound concentration ranging from 0.06 to 5000 nM, with DMSO back fill to 100 nL/well and n=2. […] The UniFilter-96 GF/B plates (PerkinElmer Cat #6005177) were pre-treated by adding 50 μl/well of 0.3% (v/v) Polyethylenimine (PEI) (branched, Sigma Cat #408727) to UniFilter-96 GF/B plates. The plates were sealed and incubated at 4° C. for 3 hrs. Then, the plates were washed with ice-cold assay buffer 3 times. The radioligand binding assay was prepared by adding assay buffer diluted hEBP-DHCR7 membrane at 66.7 µg/ml×150 μl/well into the 96-well compound plate to reach 10 μg membrane per well. Then, the assay buffer diluted [3H]—(S)-6-(2-Methyl-3-(6-(trifluoromethyl)pyridin-3-yl)propyl)-2-thia-6-azaspiro[3.4]octane 2,2-dioxide (Moravek, Cat #MT-1003106) was added at 25 nM×50 μl/well. Following this, the plate was centrifuged at 1000 rpm for 30 secs. The plate was then sealed and agitated at 600 rpm at 22° C. for 5 min, and then incubated at 22° C. for 3 hrs. The incubation was stopped by transferring the binding solution to the pre-treated UniFilter-96 GF/B plate, vacuum filtrated, and then washed four times with ice-cold assay buffer. Following this, the plates were dried at 37° C. for 45 min. The plates were then sealed at the bottom. 40 µl/well of scintillation cocktail was added to the plates. A MicroBeta2 microplate counter was then used to read the plate and analyze the data. For reference and test compounds, the results are expressed as % Inhibition, using the normalization equation: N=100−100×(U−C2)/(C1−C2), where U is the unknown value, C1 is the average of high controls, and C2 is the average value of low controls.
# Chain of human emopamil binding protein and human 7-dehydrocholesterol reductase (hEBP-DHCR7) (Q15125 whole entry): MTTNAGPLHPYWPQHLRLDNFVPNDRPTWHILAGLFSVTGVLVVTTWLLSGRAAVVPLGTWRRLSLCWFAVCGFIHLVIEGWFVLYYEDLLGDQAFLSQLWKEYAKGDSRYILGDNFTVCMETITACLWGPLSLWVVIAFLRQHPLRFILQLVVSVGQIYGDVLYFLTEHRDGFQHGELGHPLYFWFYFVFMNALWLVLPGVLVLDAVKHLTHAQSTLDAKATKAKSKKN
Compound,pEC50 [1],pKi [2]
"CC(C)n1nc(-c2cc(C(F)(F)F)ccn2)nc1[C@@H]1CC[C@@H](N2CCOCC2)C1 (single isomer, unassigned) [27*]",6.85,–
"CC(C)n1nc(-c2cncc(C(F)(F)F)c2)cc1[C@H]1[C@@H]2CC(N3CCOC[C@@H]3C)C[C@@H]21 (single isomer, unassigned) [43*]",6.61,7.19
"CC(C)n1nc(-c2cncc(C(F)(F)F)c2)cc1[C@H]1[C@@H]2CC(N3CCOC[C@H]3C)C[C@@H]21 (single isomer, unassigned) [44*]",7.21,7.19
"CC(C)n1nc(-c2cncc(C(F)(F)F)c2)cc1[C@@H]1CC[C@@H](N2CCOCC2)C1 (single isomer, unassigned) [59*]",7.72,7.13
"CC(C)n1nc(-c2cncc(C(F)(F)F)c2)cc1[C@H]1CC[C@@H](N2CCCOCC2)C1 (single isomer, unassigned) [64*]",8.56,7.81
"CC(C)n1nc(-c2cccc(C(F)(F)F)n2)nc1[C@H]1CC[C@H](N2CCOC[C@@H]2C)CC1 (single isomer, unassigned) [78*]",< 6.48,–
"CC(C)n1nc(-c2cccc(C(F)(F)F)n2)nc1[C@H]1CC[C@@H](N2CCOC[C@@H]2C)CC1 (single isomer, unassigned) [79*]",7.64,–
"CC(C)n1nc(-c2cccc(C(F)(F)F)n2)nc1[C@H]1CC[C@H](N2CCOC[C@H]2C)CC1 (single isomer, unassigned) [80*]",6.95,6.28
"CC(C)n1nc(-c2cccc(C(F)(F)F)n2)nc1[C@H]1CC[C@@H](N2CCOC[C@H]2C)CC1 (single isomer, unassigned) [81*]",7.56,–
"CC(C)n1nc(-c2ccc(C(F)(F)F)nc2)cc1[C@@H]1CC[C@@H](N2CCN(CCO)CC2)C1 (single isomer, unassigned) [86*]",7.54,7.51
"CC(C)n1nc(-c2ccc(C(F)(F)F)nc2)cc1[C@H]1CC[C@H](N2CCN(CCO)CC2)C1 (single isomer, unassigned) [88*]",6.20,7.05
"CC(C)n1nc(-c2ccc(C(F)(F)F)nc2)cc1[C@H]1CC[C@@H](N2CCN(CCO)CC2)C1 (single isomer, unassigned) [89*]",7.66,7.37
"COCCN1CCN([C@@H]2CC[C@@H](c3cc(-c4ccc(C(F)(F)F)nc4)nn3C(C)C)C2)CC1 (single isomer, unassigned) [90*]",7.47,7.96
"COCCN1CCN([C@H]2CC[C@H](c3cc(-c4ccc(C(F)(F)F)nc4)nn3C(C)C)C2)CC1 (single isomer, unassigned) [92*]",6.60,7.11
"CC(C)n1nc(-c2cncc(C(F)(F)F)c2)nc1[C@@H]1CC[C@@H](N2CCOCC2)C1 (single isomer, unassigned) [Compound 115*]",7.01,7.46
"CC(C)n1nc(-c2cncc(C(F)(F)F)c2)nc1[C@H]1CC[C@H](N2CCOCC2)C1 (single isomer, unassigned) [Compound 116*]",7.31,6.77
"CC(C)n1nc(-c2cncc(C(F)(F)F)c2)nc1[C@@H]1CC[C@H](N2CCOCC2)C1 (single isomer, unassigned) [Compound 117*]",7.87,7.46
"CC(C)n1nc(-c2cnc(C(F)(F)F)nc2)cc1[C@H]1CC[C@H](N2CCO[C@@H](CF)C2)C1 (single isomer, unassigned) [Compound 130*]",6.21,6.41
"CC(C)n1nc(-c2cnc(C(F)(F)F)nc2)cc1[C@H]1CC[C@@H](N2CCO[C@@H](CF)C2)C1 (single isomer, unassigned) [Compound 131*]",6.77,6.97
"CC(C)n1nc(-c2cnc(C(F)(F)F)nc2)cc1[C@H]1CC[C@H](N2CCO[C@H](CF)C2)C1 (single isomer, unassigned) [Compound 132*]",6.45,7.06
"CC(C)n1nc(-c2cnc(F)c(C(F)(F)F)c2)nc1[C@@H]1CC[C@H](N2CCOCC2)C1 (single isomer, unassigned) [Compound 157*]",7.23,7.29
"CC(C)n1nc(-c2cnc(F)c(C(F)(F)F)c2)nc1[C@H]1CC[C@@H](N2CCOCC2)C1 (single isomer, unassigned) [Compound 158*]",8.27,7.47
"CC(C)n1nc(-c2cnc(F)c(C(F)(F)F)c2)nc1[C@H]1CC[C@H](N2CCOCC2)C1 (single isomer, unassigned) [Compound 159*]",8.37,7.91
"CC(C)n1nc([C@H]2CC[C@H](C(F)(F)F)CC2)nc1[C@H]1[C@@H]2C[C@H](N3CCOC[C@H]3C)C[C@@H]21 (single isomer, unassigned) [Compound 164*]",6.84,5.79
"CC(C)n1nc(-c2ccc(C(F)(F)F)nc2)nc1[C@H]1CC[C@H](N2CCO[C@H](CF)C2)C1 (single isomer, unassigned) [Compound 168]",6.64,6.41
"CC(C)n1nc(-c2ccc(C(F)(F)F)nc2)nc1[C@@H]1CC[C@@H](N2CCCOCC2)C1 [Compound 3, 4-((1R,3R)-3-(1-isopropyl-3-(6-(trifluoromethyl)pyridin-3-yl)-1H-1,2,4-triazol-5-yl)cyclopentyl)-1,4-oxazepane]",7.40,7.49
"CC(C)n1nc(-c2cccc(OC(F)F)c2)nc1[C@H]1[C@@H]2C[C@@H](N3CCCOCC3)C[C@@H]21 [Compound 74, 4-((1R,3s,5S,6r)-6-(3-(3-(Difluoromethoxy)phenyl)-1-isopropyl-1H-1,2,4-triazol-5-yl)bicyclo[3.1.0]hexan-3-yl)-1,4-oxazepane]",6.77,7.43
"CC(C)n1nc(-c2cccc(OC(F)F)c2)nc1[C@H]1[C@@H]2C[C@H](N3CCCOCC3)C[C@@H]21 [Compound 75, 4-((1R,3r,5S,6r)-6-(3-(3-(Difluoromethoxy)phenyl)-1-isopropyl-1H-1,2,4-triazol-5-yl)bicyclo[3.1.0]hexan-3-yl)-1,4-oxazepane]",8.55,7.92
"CC(C)n1nc(-c2cccc(OC(F)F)c2)nc1[C@H]1[C@@H]2C[C@@H](N3CCOC[C@H]3C)C[C@@H]21 [Compound 77, (R)-4-((1R,3s,5S,6R)-6-(3-(3-(Difluoromethoxy)phenyl)-1-isopropyl-1H-1,2,4-triazol-5-yl)bicyclo[3.1.0]hexan-3-yl)-3-methylmorpholine]",6.72,6.89
"COCCN1CCN([C@@H]2CC[C@@H](c3nc(-c4ccc(C(F)(F)F)nc4)nn3C(C)C)C2)CC1 [Compound 82, 1-((1R,3R)-3-(1-Isopropyl-3-(6-(trifluoromethyl)pyridin-3-yl)-1H-1,2,4-triazol-5-yl)cyclopentyl)-4-(2-methoxyethyl)piperazine]",6.55,7.06
